Measured values published in patent publication US20070293399A1, “SUBSTITUTED DIAMINO-1,3,5-TRIAZINES, PROCESSES FOR THEIR PREPARATION AND THEIR USE AS HERBICIDES AND CROP GROWTH REGULATORS” (Bayer CropScience AG, priority 2006, published 2007).

Assays:
[1] = test system: Sinapis alba, Echinochloa crus-galli, Lolium multiflorum, Stellaria media, Cyperus iria, Amaranthus retroflexus, Setaria viridis, Avena sativa, Lamium …; assay: Post-emergence herbicidal action (greenhouse pot test); format: in vivo; details: application rate of 1 kg and less of active substance per hectare; treated at three-leaf stage; scored visually after approx. 3 to 4 weeks in comparison to untreated controls
Protocol: Seeds or rhizome pieces of mono- and dicotyledonous weeds were placed in sandy loam in plastic pots, covered with soil and grown in a greenhouse under good growth conditions. Three weeks after the sowing, the test plants were treated at the three-leaf stage. The inventive compounds formulated as spray powders or as emulsion concentrates were sprayed onto the green plant parts in various dosages with an application rate of from 600 to 800 l/ha of water (converted). After the test plants had been left to stand in the greenhouse under optimal growth conditions for approx. 3 to 4 weeks, the action of the preparations was scored visually in comparison to untreated controls. The inventive compositions also had good post-emergence herbicidal activity against a wide spectrum of economically important gramineous and broadleaf weeds.

[2] = test system: Stellaria media, Lolium multiflorum, Amaranthus retroflexus, Sinapis alba, Avena sativa and Setaria viridis; assay: Pre-emergence herbicidal action (greenhouse pot test); format: in vivo; details: application rate of 1 kg or less of active substance per hectare; scored visually after 3 to 4 weeks in comparison to untreated controls
Description: Seeds or rhizome pieces of mono- and dicotyledonous weed plants were placed in sandy loam in plastic pots and covered with soil. The inventive compounds, which have been formulated in the form of wettable powders or emulsion concentrates, were then applied to the surface of the covering soil as an aqueous suspension or emulsion in different dosages with an application rate of from 600 to 800 l/ha of water (converted).

Structure (SMILES)	herbicidal action against harmful plants in the post-emergence method [1]	herbicidal action against harmful plants in the pre-emergence method [2]
C[C@@H](F)c1nc(NC(=O)C2CC2)nc(N[C@@H]2CCCc3ccccc32)n1 [Compound 2.68]	very good herbicidal action	very good herbicidal action
Cc1ccc2c(c1)C(Nc1ncnc(NC(=O)C3CC3)n1)C(C)C2 (stereo not shown) [Compound 2.75]	very good herbicidal action	very good herbicidal action
Cc1ccc2c(c1)C(Nc1nc(NC(=S)NC(C)(C)C)nc(C(C)F)n1)C(C)C2 (stereo not shown) [Compound 2.76]	very good herbicidal action	very good herbicidal action
Cc1ccc2c(c1)C(Nc1nc(NC(=O)NC(C)C)nc(C(C)F)n1)C(C)C2 (stereo not shown) [Compound 2.78]	very good herbicidal action	very good herbicidal action
CCCCNC(=O)Nc1nc(NC2c3cc(C)ccc3CC2C)nc(C(C)F)n1 (stereo not shown) [Compound 2.87]	very good herbicidal action	very good herbicidal action
CCCCCCNC(=O)Nc1nc(NC2c3cc(C)ccc3CC2C)nc(C(C)F)n1 (stereo not shown) [Compound 2.88]	very good herbicidal action	very good herbicidal action
Cc1ccc2c(c1)C(Nc1nc(NC(=O)NC3CCCC3)nc(C(C)F)n1)C(C)C2 (stereo not shown) [Compound 2.101]	very good herbicidal action	very good herbicidal action
Cc1ccc2c(c1)C(Nc1nc(NC(=O)NCc3ccccc3)nc(C(C)F)n1)C(C)C2 (stereo not shown) [Compound 2.103]	very good herbicidal action	very good herbicidal action
COCCNC(=O)Nc1nc(NC2c3cc(C)ccc3CC2C)nc(C(C)F)n1 (stereo not shown) [Compound 2.104]	very good herbicidal action	very good herbicidal action
COC(C)(C)CNC(=O)Nc1nc(NC2c3cc(C)ccc3CC2C)nc(C(C)F)n1 (stereo not shown) [Compound 2.105]	very good herbicidal action	very good herbicidal action
CCOC(CNC(=O)Nc1nc(NC2c3cc(C)ccc3CC2C)nc(C(C)F)n1)OCC (stereo not shown) [Compound 2.106]	very good herbicidal action	very good herbicidal action
CCOC(=O)CNC(=O)Nc1nc(NC2c3cc(C)ccc3CC2C)nc(C(C)F)n1 (stereo not shown) [Compound 2.111]	very good herbicidal action	very good herbicidal action
COC(C)(C)CNC(=S)Nc1nc(NC2c3cc(C)ccc3CC2C)nc(C(C)F)n1 (stereo not shown) [Compound 2.114]	very good herbicidal action	very good herbicidal action
Cc1ccc2c(c1)C(Nc1nc(NC(=O)Nc3ccccc3)nc(C(C)F)n1)C(C)C2 (stereo not shown) [Compound 2.115]	very good herbicidal action	very good herbicidal action
Cc1ccc(NC(=O)Nc2nc(NC3c4cc(C)ccc4CC3C)nc(C(C)F)n2)cc1 (stereo not shown) [Compound 2.116]	very good herbicidal action	very good herbicidal action
Cc1ccc2c(c1)C(Nc1nc(NC(=O)Nc3ccc(F)cc3)nc(C(C)F)n1)C(C)C2 (stereo not shown) [Compound 2.117]	very good herbicidal action	very good herbicidal action
COc1ccc(NC(=O)Nc2nc(NC3c4cc(C)ccc4CC3C)nc(C(C)F)n2)cc1 (stereo not shown) [Compound 2.122]	very good herbicidal action	very good herbicidal action
Cc1ccc2c(c1)C(Nc1nc(NC(=S)Nc3ccccc3)nc(C(C)F)n1)C(C)C2 (stereo not shown) [Compound 2.127]	very good herbicidal action	very good herbicidal action

Structure (SMILES)	herbicidal action against harmful plants in the post-emergence method [1]	herbicidal action against harmful plants in the pre-emergence method [2]
Cc1ccc(NC(=S)Nc2nc(NC3c4cc(C)ccc4CC3C)nc(C(C)F)n2)cc1 (stereo not shown) [Compound 2.128]	very good herbicidal action	very good herbicidal action
Cc1ccc2c(c1)C(Nc1nc(NC(=S)Nc3ccc(F)cc3)nc(C(C)F)n1)C(C)C2 (stereo not shown) [Compound 2.129]	very good herbicidal action	very good herbicidal action
COc1ccc(NC(=S)Nc2nc(NC3c4cc(C)ccc4CC3C)nc(C(C)F)n2)cc1 (stereo not shown) [Compound 2.130]	very good herbicidal action	very good herbicidal action
Cc1ccc2c(c1)C(Nc1nc(NC(=S)NCc3ccccc3)nc(C(C)F)n1)C(C)C2 (stereo not shown) [Compound 2.131]	very good herbicidal action	very good herbicidal action
CCCCNC(=S)Nc1nc(N[C@H]2c3cc(C)ccc3C[C@@H]2C)nc([C@@H](C)F)n1 [Compound 2.132]	very good herbicidal action	very good herbicidal action
CCNC(=S)Nc1nc(N[C@H]2c3cc(C)ccc3C[C@@H]2C)nc([C@@H](C)F)n1 [Compound 2.133]	very good herbicidal action	very good herbicidal action
Cc1ccc2c(c1)[C@H](Nc1nc(NC(=S)NCCc3ccc(Cl)cc3)nc([C@@H](C)F)n1)[C@@H](C)C2 [Compound 2.134]	very good herbicidal action	very good herbicidal action
Cc1ccc2c(c1)[C@H](Nc1nc(NC(=S)NCc3ccco3)nc([C@@H](C)F)n1)[C@@H](C)C2 [Compound 2.138]	very good herbicidal action	very good herbicidal action
Cc1ccc2c(c1)[C@H](Nc1nc(NC(=S)NC3CCCCC3)nc([C@@H](C)F)n1)[C@@H](C)C2 [Compound 2.139]	very good herbicidal action	very good herbicidal action
COc1cccc(NC(=O)Nc2nc(N[C@H]3c4cc(C)ccc4C[C@@H]3C)nc([C@@H](C)F)n2)c1 [Compound 2.140]	very good herbicidal action	very good herbicidal action
CC(=O)Nc1nc(N[C@H]2c3cc(C)ccc3C[C@@H]2C)nc(C(F)F)n1 [Compound 2.149]	very good herbicidal action	very good herbicidal action
CCC(=O)Nc1nc(N[C@H]2c3cc(C)ccc3C[C@@H]2C)nc(C(F)F)n1 [Compound 2.150]	very good herbicidal action	very good herbicidal action
Cc1ccc2c(c1)[C@H](Nc1nc(NC(=O)C(C)(C)C)nc(C(F)F)n1)[C@@H](C)C2 [Compound 2.151]	very good herbicidal action	very good herbicidal action
Cc1ccc2c(c1)[C@H](Nc1nc(N=CN(C)C)nc([C@@H](C)F)n1)[C@@H](C)C2 [Compound 2.153]	very good herbicidal action	very good herbicidal action
C[C@@H](F)c1nc(N=CN(C)C)nc(N[C@@H]2CCCc3ccccc32)n1 [Compound 2.154]	very good herbicidal action	very good herbicidal action
Cc1ccc2c(c1)[C@H](Nc1ncnc(N=CN(C)C)n1)[C@@H](C)C2 [Compound 2.155]	very good herbicidal action	very good herbicidal action
CC(=Nc1nc(N[C@H]2c3cc(C)ccc3C[C@@H]2C)nc([C@@H](C)F)n1)N(C)C [Compound 2.156]	very good herbicidal action	very good herbicidal action
